The subject of one assay is PDGF-driven gliomas. As to the kind of experiment: Elux bioluminescence imaging of PDGF-induced gliomas during treatment. Format: in vivo, mice.
For assay [1], the system named is PDGF signaling in glial cell culture. To be noted: previously demonstrated; cited from earlier work.

Consider one compound from patent US7041869B2, “Transgenic luciferase mouse” (Sloan-Kettering Institute for Cancer Research, priority 2002, dated 2006).

Structures are written as SMILES. “Also recorded” adds a separate entry of the source.

Protocol for PDGF-driven gliomas: As an illustration of the use of Elux in somatic cell gene transfer models, the inventors have generated gliomas in mice harboring the Elux transgene. The Elux transgenic line was crossed with the Ntv-a transgenic mouse line. These doubly transgenic mice were then infected at birth with RCAS-PDGF. The mice were injected intracranially with one microliter containing 10^4 DF-1 cells, a chicken fibroblast cell line that are infected with and producing the RCAS-PDGF virus. This vector encodes the PDGF B coding region downstream of the env gene and expressed from the LTR on a message that splices out the viral genes. The injection passed through the striatum, just anterior to the ventricle, until the tip of the needle just touches the skull base. The producer cells survived for only a few days within the parenchyma of the mouse brain and during this time they produced virus and infected adjacent cells expressing the receptor for RCAS, tv-a. The mice were then observed for the development of signs of intracranial pathology including weight loss, lethargy, and macrocephaly. These mice were analyzed for expression of luciferase by i.v. injection with luciferin and imaging for bioluminescence with a CCD camera as discussed in detail below.
Animals were weighed prior to the acquisition session for proper dosage calculations. […] The solution was sterilized by filtration through 0.22 μm syringe filter. Individual dosages were drawn into sterile insulin syringes for each animal based on the body weight. Prior to the injection, individual syringes were kept in dark.
Oxygen flow was turned on and set for 1 l/min flow. […] For the induction of anesthesia, the animal was placed into the induction chamber and general activity and respiration rate were monitored. […]
Bioluminescent acquisition was performed according to the IVIS™ Imaging System (Xenogen). […] It was selected empirically, based on prior in vitro characterization of luminescence of transfected cells and the intensity of luminescence signal obtained from the current study. […]

Turning to `Clc1ccc(Nc2nnc(Cc3ccncc3)c3ccccc23)cc1` [PTK787], the “loss in light emission (bioluminescence)” value in the assay on PDGF-driven gliomas (Ntv-a/Elux bitransgenic mice with RCAS-PDGF gliomas, 25 mg/kg i.p. daily, in 24–36 hours) is 50%. The “relative falloff of light production across tumors of various light outputs” value with PDGF-driven gliomas (four consecutive mice with PDGF-induced gliomas, bioluminescence quantified daily during treatment) is “essentially parallel responses of decreases in light emission over time; also recorded: proportionally similar”. Moreover, the “effect on PDGF signaling in glial cell culture” value in assay [1] is “capable of reversing the effects of PDGF signaling”.
